Holding throughout (assay type): physicochemical
Data set [1] in a line: Stability of solutions at room temperature. The method, then:
40 binds Mn^II in a 1:1 ratio. This complex was prepared and characterized in situ. Mn^II was carefully titrated to 40 and Mn:40 stoichiometry was monitored by LC-MS or T2-relaxometry as describe above. […] 433.1.

The nature of data set [2]: T1 relaxivity (r1) by inversion recovery on Bruker mq60 Minispec, 1.4 T, 37° C., TRIS buffer pH 7.4. Particulars: for r1 (relaxivity of manganese complexes): pH 7.4, 37° C., 1.4 Tesla. The method, then:
(§1) Liquid chromatography-electrospray mass spectrometry (LC-MS) was performed using an Agilent 1100 Series apparatus with an LC/MSD trap and Daly conversion dynode detector with UV detection at 220, 254 and 280 nm. The methods used on this system are as follows: (a) Luna C18 column (100×2 mm); eluent A: H2O/0.1% formic acid, B: MeCN/0.1% formic acid; gradient: 5% B to 95% B over 9 minutes; flow rate 0.8 mL/min (used for characterization of organic compounds), and (b) Kromasil C18 column (250×4.6 mm); eluent C: 95% MeCN/5% 10 mM ammonium acetate, D: 10 mM ammonium acetate; gradient 5% C to 8% C over 14 minutes; flow rate 0.8 ml/min (used for characterization of manganese complexes). Reversed-phase semipreparative purification was performed on a Rainin Dynamax HPLC system with UV detection at 254 nm using a Polaris C18 column. The method used for purification is as follows: The mobile phase A was 50 mM ammonium acetate buffer, pH 6.5 and mobile phase B was a mixture of 5% 50 mM ammonium acetate buffer, pH 6.5/95% MeCN. Starting from 5% B, the fraction of B increased to 8% over 23 minutes. The column was washed with 100% B for 2 minutes and then ramped to 5% B. The system was re-equilibrated at 5% B for 3 minutes. Relaxivity measurements were performed on a Bruker mq60 Minispec at 1.4 T and 37° C. Manganese concentrations were determined using an Agilent 7500a ICP-MS system. All samples were diluted with 0.1% Triton X-100 in 5% nitric acid containing 20 ppb of Lu (as internal standard). The ratio of Mn (54.94)/Lu(174.97) was used to quantify the manganese concentration. A linear calibration curve ranging from 0.1 ppb to 200 ppb was generated daily for the quantification. UV-Vis spectra were recorded on a SpectraMax M2 spectrophotometer using quartz cuvette with a 1 cm path length. Cyclic voltammetry of Mn^IIHBET, Mn^IIEDTA and Mn^IIIHBET was recorded using a Nuvant EZstat pro potentiostat in TRIS buffer (pH=7.4), containing 0.5M KNO3 as supporting electrolyte, at 100 mVs-1 scan rate. Glassy carbon was used as the working electrode, Ag/AgCl served as the reference electrode and Pt wire was used as the auxiliary electrode. The K4FeCN6/K3FeCN6 couple was used as the internal standard.
T1 was measured with an inversion recovery pulse sequence taking 10 inversion times. Relaxivity was determined from the slope of a plot of 1/T1 vs. concentration of in TRIS buffer, pH=7.4 at 37° C. The concentration of manganese in each stock solution was determined using ICP-MS.
All chemicals and solvents were purchased commercially and used without further purification. NMR spectra were recorded on either a 500 MHz or 400 MHz Varian spectrometers. Chemical shifts are reported in δ (ppm). For ^1H and ^13C NMR spectra, the residual solvent peaks were used as internal reference, except for the ^13C NMR of the ligand where tertiary-butanol was used as the internal reference. Liquid chromatography-electrospray mass spectrometry (LC-MS) was performed using an Agilent 1100 Series apparatus with an LC/MSD trap and Daly conversion dynode detector with UV detection at 220, 254 and 280 nm. The methods used on this system are as follows: (a) Luna C18 column (100×2 mm); eluent A: H2O/0.1% formic acid, B: MeCN/0.1% formic acid; gradient: 5% B to 95% B over 9 minutes; flow rate 0.8 mL/min (used for characterization of organic compounds), and (b) Kromasil C18 column (250×4.6 mm); eluent C: 95% MeCN/5% 10 mM ammonium acetate, D: 10 mM ammonium acetate; gradient 5% C to 8% C over 14 minutes; flow rate 0.8 ml/min (used for characterization of manganese complexes). Reversed-phase semipreparative purification was performed on the Rainin Dynamax HPLC system with UV detection at 254 nm using a Polaris C18 column. The method used for purification is as follows: The mobile phase A was 50 mM ammonium acetate buffer, pH 6.5 and mobile phase B was a mixture of 5% 50 mM ammonium acetate buffer, pH 6.5/95% MeCN. Starting from 5% B, the fraction of B increased to 8% over 23 minutes. […]

The nature of data set [3]: Relaxivity at different field strengths in pH 7.4 HEPES buffer. Particulars: 37° C. The method, then:
The relaxivities of the compounds for Formulas (XI) and (XII) were determined at different field strengths at 37° C. in pH 7.4 HEPES buffer. The relaxivity was obtained from the slope of a plot of 1/T1 vs. [Mn] for different Mn concentrations. Since Formula (XI) contains 6 Mn per molecule, the ionic (per Mn) and molecular (per molecule) relaxivities are given below.

Data set [4] is described as follows: Cyclic voltammetry of the Mn(III)/Mn(II) redox couple. As to conditions: for Half-cell potential vs. normal hydrogen electrode (NHE): pH 7.4, vs. NHE. The method, then: Potentials are vs. K4Fe(CN)6/K3Fe(CN)6; and in (b), a Cottrell plot of the Mn^2+/Mn^3+ couple—ia, (decreasing line) and ic (increasing line) vs. √v, where v=scan rate.
as §1

Data set [5] is described as follows: Kinetics of reduction of Mn^III-HBET by glutathione. Particulars: 37° C., pH 7.4; first-order in both [GSH] and [Mn^III-HBET]. The method, then: A series of kinetic experiments were conducted at 37° C. (pH 7.4) to determine the empirical rate law for the reduction of Mn^III-HBET by glutathione. […] This feature allowed us to easily monitor the reduction of Mn^III-HBET over time. We measured initial reaction rates at three different glutathione concentrations (5 mM, 10 mM and 20 mM). For each glutathione concentration, the reaction was performed at four different initial concentrations of M^III-HBET (0.3 mM, 0.4 mM, 0.5 mM and 0.6 mM). Based on these experiments, we determined that the reaction was first-order in both [GSH] and [Mn^III-HBET] with an overall second-order rate constant of (3.8±0.3)×10^−1 M^−1 s^−1.
This series of kinetic experiments were conducted at 37° C. (pH 7.4) to determine the empirical rate law for the reduction of Mn^III-HBET by glutathione. […] Initial reaction rates were measured at a three different glutathione concentrations (5 mM, 10 mM and 20 mM). […]
Here, the observed rate constant (kobs) is simply the product of the actual rate constant (k) and [GSH], t is time, and the subscripts ‘t’ and ‘o’ refer to the concentration at time T or the initial concentration, respectively. […] Based on these experiments, we determined that the reaction was first-order in both [GSH] and [Mn^III-HBET] with an overall second-order rate constant of (3.8±0.3)×10^−1 M^−1 s^−1.

Data set [6] is described as follows: Stability of manganese complexes in buffers. The method, then:
The stability of the manganese complexes were measured in different buffers using concentrations similar to those found in the blood plasma (1 mM phosphate buffer, 25 mM sodium bicarbonate buffer and 0.1 mM citrate buffer). A solution, 0.5 mM, of the manganese complex was incubated in the respective buffers at 37° C. (pH=7.4) and the species were then quantified on the LC-MS using the method as described earlier. The manganese complexes (0.5 mM) were also treated with EDTA (0.5 mM) in TRIS buffer (pH=7.4) and incubated at 37° C. for 1 hour. The species were then quantified on the LC-MS using the method as described earlier.

The nature of data set [7]: UV spectrum as a function of pH (phenol deprotonation pKa). As to conditions: fit of UV absorbance vs pH. The method, then:
To probe the speciation of the manganese complexes in solution, pH titrations of 1:1 Mn^2+:ligand were performed using a 1 N NaOH under N2 atmosphere (FIG. 21).
To determine the species that exists in these two pH ranges the UV spectrum as a function of pH was monitored (see FIGS. 22-24).

Consider [Mn(CyP3A)] [Compound 41], for which, in data set [1], the stability of solutions entry is “indefinitely stable”. Also, the “Relaxivities r1 at 1.41T” value in data set [2] (1.41T, 37° C., pH 7.4 Tris buffer) is 2.50 mM⁻¹ s⁻¹.

As to Na[Mn(TyOH-EDTA)] [Compound 52], the “Relaxivity r1 at 0.47T (per Mn)” value in data set [3] (0.47T, ionic (per Mn)) was found to be 3.60 mM⁻¹ s⁻¹. Also, the “Relaxivity r1 at 1.4T (per Mn)” value in data set [3] (1.4T, ionic (per Mn)) worked out at 2.80 mM⁻¹ s⁻¹. In addition, the “Relaxivity r1 at 9.4T (per Mn)” value in data set [3] (9.4T, ionic (per Mn)) turned out to be 3.65 mM⁻¹ s⁻¹. Besides, the “Relaxivity r1 at 11.7T (per Mn)” value in data set [3] (11.7T, ionic (per Mn)) came out at 3.05 mM⁻¹ s⁻¹.

With `O=C([O-])CN(CCN(CC(=O)[O-])Cc1cc([N+](=O)[O-])ccc1[O-])CC(=O)[O-].[Mn+3].[Na+]` [Compound 14, Na[Mn^IIIHBET-NO2]], the “r1 (relaxivity of manganese complexes)” value in data set [2] was found to be 0.34 mM⁻¹ s⁻¹. Moreover, the “Half-cell potential vs. normal hydrogen electrode (NHE)” value in data set [4] was 476 mV.

In the case of `O=C([O-])CN(CC(=O)[O-])C1CCCCC1N(CC(=O)[O-])Cc1cc([N+](=O)[O-])ccc1[O-].[Mn+3].[Na+]` (racemic) [Compound 31, Na[Mn^IIIcycHBET-NO2]], the “Half-cell potential vs. normal hydrogen electrode (NHE)” value in data set [4] amounted to 488 mV.

With `O=C([O-])CN(CCN(CC(=O)[O-])Cc1ccccc1[O-])CC(=O)[O-].[Mn+3].[Na+]` [Compound 5, Na[Mn^IIIHBET]], in data set [5], the “overall second-order rate constant of reduction by glutathione” value was “(3.8±0.3)×10^−1 M^−1 s^−1”. In data set [2] (1.4 T, Tris buffered saline pH 7.4, 37° C.), this molecule showed a T1 relaxivities of 1.05 mM⁻¹ s⁻¹. The “r1 (relaxivity of manganese complexes)” value in data set [2] was determined as 1.05 mM⁻¹ s⁻¹. Also, the “stability in phosphate and carbonate buffers” value in data set [6] is recorded as “stable”.

For `O=C([O-])CN(CCN(CC(=O)[O-])Cc1ccccc1[O-])Cc1ccccc1[O-].[Mn+3]` [Mn^III-HBED, reference compound], in data set [4] (irreversible oxidation / quasi-reversible reduction peaks, TRIS buffer pH 7.4), the “half-cell potentials (Mn^II/Mn^III)” value stood at 0.016 V.

On to `O=C([O-])CN(CC(=O)[O-])C1CCCCC1N(CC(=O)[O-])Cc1ccccc1[O-].[Mn+3].[Na+]` (racemic) [Compound 21, Na[Mn^IIIcycHBET]], for which the “r1 (relaxivity of manganese complexes)” value in data set [2] amounted to 1.56 mM⁻¹ s⁻¹. The “Half-cell potential vs. normal hydrogen electrode (NHE)” value in data set [4] was 365 mV.

Consider `O=C([O-])CN(CC(=O)[O-])C1CCCCC1N(CC(=O)[O-])Cc1ccccc1[O-].[Mn+2].[Na+].[Na+]` (racemic) [Compound 20, Na2[Mn^IIcycHBET]], for which the “pKa for ionization of the phenol” value in data set [7] came to 7.95. In data set [2], the “r1 (relaxivity of manganese complexes)” value was found to be 3.26 mM⁻¹ s⁻¹.

As for `O=C([O-])CN(CC(=O)[O-])C1CCCCC1N(CC(=O)[O-])Cc1cc([N+](=O)[O-])ccc1[O-].[Mn+2].[Na+].[Na+]` (racemic) [Compound 30, Na2[Mn^IIcycHBET-NO2)]], in data set [2], the “r1 (relaxivity of manganese complexes)” value was found to be 2.30 mM⁻¹ s⁻¹.

As for `COc1ccc([O-])c(CN(CCN(CC(=O)[O-])CC(=O)[O-])CC(=O)[O-])c1.[Mn+2].[Na+].[Na+]` [Compound 9, Na2[Mn^IIHBET-OMe]], the “pKa for ionization of the phenol” value in data set [7] stood at 7.91. Besides, the “r1 (relaxivity of manganese complexes)” value in data set [2] came out at 3.11 mM⁻¹ s⁻¹. Further, the “Half-cell potential vs. normal hydrogen electrode (NHE)” value in data set [4] was 344 mV.

On to Mn6[N3P3-(TyOH-EDTA)6] [Compound 55], for which the “Relaxivity r1 at 0.47T (per Mn)” value in data set [3] (0.47T, ionic (per Mn)) worked out at 9.07 mM⁻¹ s⁻¹. Moreover, the “Relaxivity r1 at 0.47T per molecule” value in data set [3] (0.47T, molecular (per molecule, 6 Mn)) was found to be 54.4 mM⁻¹ s⁻¹. Further, in data set [3] (1.4T, ionic (per Mn)), the “Relaxivity r1 at 1.4T (per Mn)” value stood at 9.28 mM⁻¹ s⁻¹. The “Relaxivity r1 at 1.4T per molecule” value in data set [3] (1.4T, molecular (per molecule, 6 Mn)) was determined as 55.7 mM⁻¹ s⁻¹. Besides, the “Relaxivity r1 at 4.7T (per Mn)” value in data set [3] (4.7T, ionic (per Mn)) stood at 6.54 mM⁻¹ s⁻¹. The “Relaxivity r1 at 4.7T per molecule” value in data set [3] (4.7T, molecular (per molecule, 6 Mn)) stood at 39.2 mM⁻¹ s⁻¹. In addition, the “Relaxivity r1 at 9.4T (per Mn)” value in data set [3] (9.4T, ionic (per Mn)) was 4.94 mM⁻¹ s⁻¹. Further, the “Relaxivity r1 at 9.4T per molecule” value in data set [3] (9.4T, molecular (per molecule, 6 Mn)) was determined as 29.6 mM⁻¹ s⁻¹. Also, in data set [3] (11.7T, ionic (per Mn)), the “Relaxivity r1 at 11.7T (per Mn)” value is 3.57 mM⁻¹ s⁻¹. For the same molecule, the “Relaxivity r1 at 11.7T per molecule” value in data set [3] (11.7T, molecular (per molecule, 6 Mn)) was determined as 21.4 mM⁻¹ s⁻¹.

As to `O=C([O-])CN(CCN(CC(=O)[O-])Cc1cc([N+](=O)[O-])ccc1[O-])CC(=O)[O-].[Mn+2].[Na+].[Na+]` [Compound 13, Na2[Mn^IIHBET-NO2]], in data set [7], the “pKa for ionization of the phenol” value amounted to 4.84. Moreover, in data set [2], the “r1 (relaxivity of manganese complexes)” value amounted to 2.28 mM⁻¹ s⁻¹.

These data come from patent US20150336996A1, “MANGANESE-BASED MAGNETIC RESONANCE CONTRAST AGENTS” (THE GENERAL HOSPITAL CORPORATION, priority 2013, published 2015).
